Data from patent US12269831B2, “Modulators of cystic fibrosis transmembrane conductance regulator” (Vertex Pharmaceuticals Incorporated, priority 2020, dated 2025).
Where two headings read alike, the source gives them in different places. Values belong to the compound of their own block, whether it stands above or below them.

Assays:
[1] = 14-membered ring
[2] = biological target: T1, CFTR (F508del/MF-HBE cells) (Homo sapiens, UniProt P13569, DEL508-508); experiment: Ussing chamber assay of CFTR-mediated short-circuit currents (potentiator identification); assay type: cell-based; settings: CFTR-mediated Isc, 18-24 h incubation at 37° C. with 10 μM (14S)-8-[3-(2-{dispiro[2.0.2.1]heptan-7-yl}ethoxy)-1H-pyrazol-1-yl]-... corrector, 20% human serum
T1 construct: human bronchial epithelial (HBE) cells derived from CF subjects heterozygous for F508del and a minimal function CFTR mutation (F508del/MF-HBE); endogenous in cells; host or cells: primary human bronchial epithelial (HBE) cells from CF subjects, genotype F508del/minimal function
T1 sequence (P13569 with tags, fused parts or gaps DEL508-508): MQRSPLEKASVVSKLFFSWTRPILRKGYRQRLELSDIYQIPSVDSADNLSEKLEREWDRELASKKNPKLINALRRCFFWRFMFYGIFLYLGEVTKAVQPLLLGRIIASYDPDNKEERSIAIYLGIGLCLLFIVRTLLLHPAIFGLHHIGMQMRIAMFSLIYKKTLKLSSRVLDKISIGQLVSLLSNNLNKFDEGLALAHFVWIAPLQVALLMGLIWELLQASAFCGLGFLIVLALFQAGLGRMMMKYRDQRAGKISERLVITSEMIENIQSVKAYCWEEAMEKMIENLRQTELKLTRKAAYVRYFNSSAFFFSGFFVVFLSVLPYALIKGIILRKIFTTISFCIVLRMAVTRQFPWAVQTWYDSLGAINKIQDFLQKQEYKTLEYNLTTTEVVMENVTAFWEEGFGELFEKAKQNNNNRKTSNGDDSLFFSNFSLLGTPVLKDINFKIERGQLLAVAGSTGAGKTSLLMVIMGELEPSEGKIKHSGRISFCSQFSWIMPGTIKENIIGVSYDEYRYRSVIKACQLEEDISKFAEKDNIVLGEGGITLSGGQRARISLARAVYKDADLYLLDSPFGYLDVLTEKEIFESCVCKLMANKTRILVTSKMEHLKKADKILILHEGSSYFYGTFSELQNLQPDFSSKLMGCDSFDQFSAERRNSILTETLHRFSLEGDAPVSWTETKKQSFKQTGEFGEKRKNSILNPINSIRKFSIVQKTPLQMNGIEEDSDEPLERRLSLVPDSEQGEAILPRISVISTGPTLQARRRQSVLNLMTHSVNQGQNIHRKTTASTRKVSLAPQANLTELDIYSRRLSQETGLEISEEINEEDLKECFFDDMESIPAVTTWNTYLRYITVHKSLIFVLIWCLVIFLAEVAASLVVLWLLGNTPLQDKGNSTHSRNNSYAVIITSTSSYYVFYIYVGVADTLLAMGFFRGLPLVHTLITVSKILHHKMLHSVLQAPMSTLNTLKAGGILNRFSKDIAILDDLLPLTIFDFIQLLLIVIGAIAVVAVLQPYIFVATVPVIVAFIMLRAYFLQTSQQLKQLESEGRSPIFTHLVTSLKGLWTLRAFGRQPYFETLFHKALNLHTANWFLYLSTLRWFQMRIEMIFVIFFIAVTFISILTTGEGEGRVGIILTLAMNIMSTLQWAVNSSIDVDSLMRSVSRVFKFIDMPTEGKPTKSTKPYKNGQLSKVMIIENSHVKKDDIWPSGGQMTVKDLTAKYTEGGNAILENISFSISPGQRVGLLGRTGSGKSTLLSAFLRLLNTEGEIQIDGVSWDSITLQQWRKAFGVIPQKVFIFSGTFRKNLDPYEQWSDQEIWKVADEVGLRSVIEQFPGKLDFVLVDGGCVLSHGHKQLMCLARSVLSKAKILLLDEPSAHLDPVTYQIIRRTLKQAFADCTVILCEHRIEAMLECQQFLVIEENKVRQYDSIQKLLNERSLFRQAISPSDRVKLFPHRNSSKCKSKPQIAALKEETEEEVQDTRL
Procedure: Ussing Chamber Assay of CFTR-Mediated Short-Circuit Currents
Ussing chamber experiments were performed using human bronchial epithelial (HBE) cells derived from CF subjects heterozygous for F508del and a minimal function CFTR mutation (F508del/MF-HBE) and cultured as previously described (Neuberger T, Burton B, Clark H, Van Goor F Methods Mol Biol 2011:741:39-54). After four days the apical media was removed, and the cells were grown at an air liquid interface for >14 days prior to use.
To isolate the CFTR-mediated short-circuit (Isc) current, F508del/MF-HBE grown on Costar® Snapwell™ cell culture inserts were mounted in an Ussing chamber and the transepithelial ISC was measured under voltage-clamp recording conditions (Vhold=0 mV) at 37° C. The basolateral solution contained (in mM) 145 NaCl, 0.83 K2HPO4, 3.3 KH2PO4, 1.2 MgCl2, 1.2 CaCl2, 10 Glucose, 10 HEPES (pH adjusted to 7.4 with NaOH) and the apical solution contained (in mM) 145 NaGluconate, 1.2 MgCl2, 1.2 CaCl2, 10 glucose, 10 HEPES (pH adjusted to 7.4 with NaOH) and 30 μM amiloride to block the epithelial sodium channel. Forskolin (20 μM) was added to the apical surface to activate CFTR, followed by apical addition of a CFTR inhibitor cocktail consisting of BPO, GlyH-101 and CFTR inhibitor 172 (each at 20 μM final assay concentration) to specifically isolate CFTR currents. The CFTR-mediated Isc (μA/cm^2) for each condition was determined from the peak forskolin response to the steady-state current following inhibition.
Identification of Potentiator Compounds
The activity of the CFTR potentiator compounds on the CFTR-mediated Isc was determined in Ussing chamber studies as described above. The F508del/MF-HBE cell cultures were incubated with the potentiator compounds at a range of concentrations in combination with 10 μM (14S)-8-[3-(2-{dispiro[2.0.2.1]heptan-7-yl}ethoxy)-1H-pyrazol-1-yl]-12,12-dimethyl-2λ^6-thia-3,9,11,18,23-pentaazatetracyclo[17.3.1.111,14.05,10]tetracosa-1(22),5,7,9,19(23),20-hexaene-2,2,4-trione for 18-24 hours at 37° C. and in the presence of 20% human serum. The concentration of potentiator compounds and (14S)-8-[3-(2-{dispiro[2.0.2.1]heptan-7-yl}ethoxy)-1H-pyrazol-1-yl]-12,12-dimethyl-2λ^6-thia-3,9,11,18,23-pentaazatetracyclo[17.3.1.111,14.05,10]tetracosa-1(22),5,7,9,19(23),20-hexaene-2,2,4-trione used during the 18-24 hours incubations was kept constant throughout the Ussing chamber measurement of the CFTR-mediated Isc to ensure compounds were present throughout the entire experiment. The efficacy and potency of the putative F508del potentiators was compared to that of the known Vertex potentiator, ivacaftor (N-[2,4-bis(1,1-dimethylethyl)-5-hydroxyphenyl]-1,4-dihydro-4-oxoquinoline-3-carboxamide).

SMILES: C[C@@H]1COCCC[C@](OCc2ccccc2)(C(F)(F)F)C2=NN=C(O2)c2nc(c(C(F)(F)F)cc2N(C(=O)OC(C)(C)C)C(=O)OC(C)(C)C)O1
- ring closure, isolated yield ([1]; from tert-butyl N-[2-[5-[(1R)-1-benzyloxy-4-[(25)-2-hydroxypropoxy]-1-(trifluoromethyl)butyl]-1,3,4-oxadiazol-2-yl]-6-hydroxy-5-(trifluoromethyl)-3-pyridyl]-N-tert-butoxycarbonyl-carbamate, ether bond, PPh3/DIAD, THF, 15.0 mM): 50%

SMILES: CC(C)(C)OC(=O)N(C(=O)OC(C)(C)C)c1cc(C(F)(F)F)c2nc1-c1nnc(o1)[C@@](OCc1ccccc1)(C(F)(F)F)CCC=CC[C@H](COCc1ccccc1)O2 (mixture of isomers)
- ring closure, isolated yield ([1]; from C=CCC[C@@](OCc1ccccc1)(c1nnc(-c2nc(O[C@H](CC=C)COCc3ccccc3)c(C(F)(F)F)cc2N(C(=O)OC(C)(C)C)C(=O)OC(C)(C)C)o1)C(F)(F)F, rcm bond, Zhan-1B, DCE, 3.72 mM, 60.0 °C, 2.5 h): 46%

SMILES: C[C@H]1Oc2nc(c(NC(=O)OC(C)(C)C)cc2C(F)(F)F)C2=NN=C(O2)[C@@](OCc2ccccc2)(C(F)(F)F)CC=CCC1OCc1ccccc1 (mixture of isomers)
- ring closure, isolated yield ([1]; from C=CCC(OCc1ccccc1)[C@@H](C)Oc1nc(-c2nnc([C@@](CC=C)(OCc3ccccc3)C(F)(F)F)o2)c(NC(=O)OC(C)(C)C)cc1C(F)(F)F, rcm bond, Zhan-1B, DCE, 6.94 mM, 70.0 °C, 48.0 h): 56%

SMILES: C[C@@H]1CCOCCC(OCc2ccccc2)(C(F)(F)F)C2=NN=C(O2)c2nc(c(C(F)(F)F)cc2N(C(=O)OC(C)(C)C)C(=O)OC(C)(C)C)O1 (stereo partly drawn)
- ring closure, isolated yield ([1]; from C[C@H](O)CCOCCC(OCc1ccccc1)(c1nnc(-c2nc(O)c(C(F)(F)F)cc2N(C(=O)OC(C)(C)C)C(=O)OC(C)(C)C)o1)C(F)(F)F, ether bond, PPh3/DIAD, toluene, 10.2 mM, 7.0 h): 57%

SMILES: C[C@H]1CC=CCC[C@](OCc2ccccc2)(C(F)(F)F)C2=NN=C(O2)c2nc(c(C(F)(F)F)cc2NC(=O)OC(C)(C)C)O1 (mixture of isomers)
- ring closure, isolated yield ([1]; from C=CCC[C@@](OCc1ccccc1)(c1nnc(-c2nc(O[C@@H](C)CC=C)c(C(F)(F)F)cc2NC(=O)OC(C)(C)C)o1)C(F)(F)F, rcm bond, Hoveyda-Grubbs II, toluene, 5.08 mM, 100.0 °C, 1.0 h): 22%

SMILES: C[C@@H]1CC=CCC[C@](OCc2ccccc2)(C(F)(F)F)C2=NN=C(O2)c2nc(c(C(F)F)cc2NC(=O)OC(C)(C)C)O1 (mixture of isomers)
- ring closure, isolated yield ([1]; from C=CCC[C@@](OCc1ccccc1)(c1nnc(-c2nc(O[C@H](C)CC=C)c(C(F)F)cc2NC(=O)OC(C)(C)C)o1)C(F)(F)F, rcm bond, Zhan-1B, DCE, 3.0 mM, 60.0 °C, 2.0 h): 26%

SMILES: O=[N+]([O-])c1cc(C(F)(F)F)c2nc1-c1nnc(o1)[C@@](OCc1ccccc1)(C(F)(F)F)CCC=CCC(C1CC1)O2 (mixture of isomers)
- ring closure, isolated yield ([1]; from C=CCC[C@@](OCc1ccccc1)(c1nnc(-c2nc(OC(CC=C)C3CC3)c(C(F)(F)F)cc2[N+](=O)[O-])o1)C(F)(F)F, rcm bond, Zhan-1B, DCE, 1.6 mM, 70.0 °C, 2.25 h): 59%

SMILES: C[C@@H]1CCC=CC(O)C(OCc2ccccc2)(C(F)(F)F)C2=NN=C(O2)c2nc(c(C(F)(F)F)cc2N)O1 (mixture of isomers)
- ring closure, isolated yield ([1]; from C=CCC[C@@H](C)Oc1nc(-c2nnc(C(OCc3ccccc3)(C(O)C=C)C(F)(F)F)o2)c(N)cc1C(F)(F)F, rcm bond, Zhan-1B, DCE, 3.1 mM, 70.0 °C, 3.5 h): 76%

SMILES: C[C@@H]1CCCOCC(OCc2ccccc2)(C(F)(F)F)C2=NN=C(O2)c2nc(c(C(F)(F)F)cc2N(C(=O)OC(C)(C)C)C(=O)OC(C)(C)C)O1 (stereo partly drawn)
- ring closure, isolated yield ([1]; from C[C@H](O)CCCOCC(OCc1ccccc1)(c1nnc(-c2nc(O)c(C(F)(F)F)cc2N(C(=O)OC(C)(C)C)C(=O)OC(C)(C)C)o1)C(F)(F)F, ether bond, PPh3/DIAD, toluene, 6.1 mM, 6.0 h): 59%

SMILES: CC(C)(C)OC(=O)N(C(=O)OC(C)(C)C)c1cc(C(F)(F)F)c2nc1-c1nnc(o1)[C@@](OCc1ccccc1)(C(F)(F)F)CCC=CCC(Cc1ccc(F)cc1)O2 (mixture of isomers)
- ring closure, isolated yield ([1]; from C=CCC[C@@](OCc1ccccc1)(c1nnc(-c2nc(OC(CC=C)Cc3ccc(F)cc3)c(C(F)(F)F)cc2N(C(=O)OC(C)(C)C)C(=O)OC(C)(C)C)o1)C(F)(F)F, rcm bond, Zhan-1B, DCE, 2.35 mM, 60.0 °C, 1.0 h): 63%

SMILES: CC1(C)CC=CC[C@](OCc2ccccc2)(C(F)(F)F)C2=NN=C(O2)c2nc(c(C(F)(F)F)cc2N(C(=O)OC(C)(C)C)C(=O)OC(C)(C)C)OC1 (mixture of isomers)
- ring closure, isolated yield ([1]; from C=CCC(C)(C)COc1nc(-c2nnc([C@@](CC=C)(OCc3ccccc3)C(F)(F)F)o2)c(N(C(=O)OC(C)(C)C)C(=O)OC(C)(C)C)cc1C(F)(F)F, rcm bond, Zhan-1B, toluene, 2.2 mM, 110.0 °C, 4.0 h): 10%

SMILES: CC1CC=CCCC(OCc2ccccc2)(C(F)(F)F)C2=NN=C(O2)c2nc(c(C(F)(F)F)cc2NC(=O)OC(C)(C)C)O1 (mixture of isomers)
- ring closure, isolated yield ([1]; from C=CCCC(OCc1ccccc1)(c1nnc(-c2nc(OC(C)CC=C)c(C(F)(F)F)cc2NC(=O)OC(C)(C)C)o1)C(F)(F)F, rcm bond, Zhan-1B, DCE, 4.57 mM, 70.0 °C, 16.0 h): 36%

SMILES: CC(C)(C)OC(=O)Nc1cc(C(F)(F)F)c2nc1-c1nnc(o1)C(OCc1ccccc1)(C(F)(F)F)CC=CCc1ccccc1O2 (mixture of isomers)
- ring closure, isolated yield ([1]; from C=CCc1ccccc1Oc1nc(-c2nnc(C(CC=C)(OCc3ccccc3)C(F)(F)F)o2)c(NC(=O)OC(C)(C)C)cc1C(F)(F)F, rcm bond, Grubbs II, DCE, 5.12 mM, 70.0 °C, 21.0 h): 62%

SMILES: C[C@@H]1CC=CCC[C@](OCc2ccccc2)(C(F)(F)F)C2=NN=C(O2)c2nc(c(C(F)(F)F)cc2Cl)O1 (mixture of isomers)
- ring closure, isolated yield ([1]; from C=CCC[C@@](OCc1ccccc1)(c1nnc(-c2nc(O[C@H](C)CC=C)c(C(F)(F)F)cc2Br)o1)C(F)(F)F, rcm bond, Zhan-1B, DCE, 2.2 mM, 60.0 °C, 2.0 h): 47%

SMILES: CC(C)(C)OC(=O)N(C(=O)OC(C)(C)C)c1cc(C(F)(F)F)c2nc1-c1nnc(o1)[C@@](OCc1ccccc1)(C(F)(F)F)CCC=CC[C@@H](COCc1ccccc1)O2 (mixture of isomers)
- ring closure, isolated yield ([1]; from C=CCC[C@@](OCc1ccccc1)(c1nnc(-c2nc(O[C@@H](CC=C)COCc3ccccc3)c(C(F)(F)F)cc2N(C(=O)OC(C)(C)C)C(=O)OC(C)(C)C)o1)C(F)(F)F, rcm bond, Zhan-1B, DCE, 2.78 mM, 60.0 °C, 5.5 h): 45%

SMILES: CCC1CCC=CC[C@](OCc2ccccc2)(C(F)(F)F)C2=NN=C(O2)c2nc(c(C(F)(F)F)cc2N(C(=O)OC(C)(C)C)C(=O)OC(C)(C)C)O1 (mixture of isomers)
- ring closure, isolated yield ([1]; from C=CCCC(CC)Oc1nc(-c2nnc([C@@](CC=C)(OCc3ccccc3)C(F)(F)F)o2)c(N(C(=O)OC(C)(C)C)C(=O)OC(C)(C)C)cc1C(F)(F)F, rcm bond, Zhan-1B, DCE, 5.4 mM, 70.0 °C): 91%

SMILES: C[C@@H]1CC=CCc2cn(Cc3ccccc3)nc2C2=NN=C(O2)c2nc(c(C(F)(F)F)cc2NC(=O)OC(C)(C)C)O1 (mixture of isomers)
- ring closure, isolated yield ([1]; from C=CCc1cn(Cc2ccccc2)nc1-c1nnc(-c2nc(O[C@H](C)CC=C)c(C(F)(F)F)cc2NC(=O)OC(C)(C)C)o1, rcm bond, Zhan-1B, DCE, 2.9 mM, 70.0 °C, 2.0 h): 37%

- EC50 [2]: < 0.5 µM
SMILES: C[C@@H]1CCCCC(O)C(O)(C(F)(F)F)C2=NN=C(O2)c2nc(c(C(F)(F)F)cc2N)O1 (single isomer, unassigned) [Compound 62]

- EC50 [2]: < 0.5 µM
SMILES: Nc1cc(C(F)(F)F)c2nc1-c1nnc(o1)[C@@](O)(C(F)(F)F)CCCCCC(CC1CC1)O2 (single isomer, unassigned) [Compound 47]

- EC50 [2]: < 0.5 µM
SMILES: CC(C)(C)c1cccc(CC2CCCCC[C@](O)(C(F)(F)F)C3=NN=C(O3)c3nc(c(C(F)(F)F)cc3N)O2)c1 (single isomer, unassigned) [Compound 51]

- EC50 [2]: < 0.5 µM
SMILES: Nc1cc(C(F)(F)F)c2nc1-c1nnc(o1)[C@@](O)(C(F)(F)F)CCCCCCO2 [Compound 5, (6R)-17-amino-6,15-bis(trifluoromethyl)-13,19-dioxa-3,4,18-triazatricyclo[12.3.1.12,5]nonadeca-1(18),2,4,14,16-pentaen-6-ol]
